This is an account of results in ChEMBL document CHEMBL1201862, “PubChem BioAssay data set” (2004).

Each structure is given as a SMILES string. Activity calls are given as the source filed them. Rule as the data show it, for most assays here: actives have a measured EC50 and inactives only a lower limit. A value given as a limit tells only on which side of the number the result lay.

The AC50 is the concentration at which the activity in the assay is half-maximal. Broadly, the EC50 is the concentration at which the effect is half-maximal.

The target in one experiment is Cytochrome P450 3A4 (Homo sapiens, UniProt P08684).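 Also: CYP3A4 tested as one member of a cytochrome P450 panel screen.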
Cytochrome P450 3A4, sequence (P08684 whole entry): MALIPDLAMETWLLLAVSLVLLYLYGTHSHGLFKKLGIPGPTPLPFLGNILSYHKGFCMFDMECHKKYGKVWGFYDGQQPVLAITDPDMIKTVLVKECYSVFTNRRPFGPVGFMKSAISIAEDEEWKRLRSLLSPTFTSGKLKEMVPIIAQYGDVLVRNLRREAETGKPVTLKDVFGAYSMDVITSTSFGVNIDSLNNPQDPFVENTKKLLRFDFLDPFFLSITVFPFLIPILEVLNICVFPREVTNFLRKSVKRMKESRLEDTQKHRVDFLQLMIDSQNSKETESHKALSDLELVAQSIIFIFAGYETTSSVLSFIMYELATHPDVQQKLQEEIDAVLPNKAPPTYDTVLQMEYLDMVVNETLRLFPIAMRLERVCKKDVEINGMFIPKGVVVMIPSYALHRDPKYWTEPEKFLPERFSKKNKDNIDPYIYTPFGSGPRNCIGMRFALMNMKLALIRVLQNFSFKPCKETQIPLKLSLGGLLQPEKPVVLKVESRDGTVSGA
Another experiment deals with Streptococcus. Put plainly: GAS UMAA2166 growth inhibition – luminescence, BacTiterGlo, counter-screen for streptokinase expression inhibitor project, dose response (AID 1915).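 Also: potency for reduction of bacterial viability or growth.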 It counts as functional, organism-based. In general terms: Counterscreens check selectivity or assay interference.
The next experiment addresses T1, Streptokinase A (Streptococcus pyogenes serotype M1, UniProt P10520).
T1 sequence (P10520 whole entry): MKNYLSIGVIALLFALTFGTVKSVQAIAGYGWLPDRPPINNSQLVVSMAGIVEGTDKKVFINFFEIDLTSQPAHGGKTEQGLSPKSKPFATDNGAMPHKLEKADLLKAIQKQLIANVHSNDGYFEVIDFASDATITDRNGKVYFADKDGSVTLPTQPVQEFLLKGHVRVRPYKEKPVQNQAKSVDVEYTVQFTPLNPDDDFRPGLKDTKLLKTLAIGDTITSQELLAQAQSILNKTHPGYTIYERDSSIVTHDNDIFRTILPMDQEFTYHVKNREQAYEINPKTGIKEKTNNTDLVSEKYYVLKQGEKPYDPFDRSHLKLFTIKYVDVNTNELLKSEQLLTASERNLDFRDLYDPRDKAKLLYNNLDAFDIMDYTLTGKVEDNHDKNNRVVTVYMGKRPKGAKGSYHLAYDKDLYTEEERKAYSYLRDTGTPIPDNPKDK
Put plainly: viability-normalized secreted streptokinase activity reduction – plasminogen activation absorbance, OD405, dose response (AID 1914).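 Also: secreted streptokinase activity via plasminogen activation per viability signal from cell pellet.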 The format is functional, Streptococcus pyogenes M1 GAS.

In experiment [1] the test system is Streptococcus sp. 'group A'. As to the kind of experiment: Streptococcus pyogenes SK(-)GAS viability under kanamycin – luminescence, BacTiterGlo, confirmation, counter-screen for streptokinase expression inhibitor project, dose response (AID 1900). It counts as functional, organism-based.
Another experiment addresses Cytochrome P450 2C9 (Homo sapiens, UniProt P11712).
Another experiment deals with H4. Put plainly: Luminescence Cell-Based Dose Response HTS to Identify Activators of 5'UTR Stem-Loop Driven Prion Protein mRNA Translation in H4 Neuroglioblastoma Cells. [Related pubchem assays: 1829 (Project Summary), 1814 (Primary HTS)]. The format is functional. The conditions noted are these: Homo sapiens.
A short description of experiment [2]: Luminescence Cell-Based Dose Response HTS to Identify Activators of Luciferase Translation or Activity in H4 […] Cells. [Related pubchem assays: 1829 (Project Summary), 1814 (Primary HTS)]. It counts as functional.
The nature of experiment [3]: Trypanosoma cruzi growth suppression in host cells – NIH3T3 host cells, beta-gal luminescence, confirmation (AID 2044).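 Also: intracellular parasites grown in NIH/3T3 mouse fibroblasts as host cells; luminescent beta-galactosidase reporter signal from transgenic T. cruzi replicating inside host cells; inhibitors lower the luminescence signal.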 The format is functional, cell-based.
A short description of experiment [4]: NIH3T3 cell viability loss – ATP luminescence, mouse fibroblasts, counter-screen, dose response (AID 2010).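 Also: cells exposed to compound for about 90 hours before reading.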 The format is functional, cell-based.

Cytochrome P450 2C9, sequence (P11712 whole entry): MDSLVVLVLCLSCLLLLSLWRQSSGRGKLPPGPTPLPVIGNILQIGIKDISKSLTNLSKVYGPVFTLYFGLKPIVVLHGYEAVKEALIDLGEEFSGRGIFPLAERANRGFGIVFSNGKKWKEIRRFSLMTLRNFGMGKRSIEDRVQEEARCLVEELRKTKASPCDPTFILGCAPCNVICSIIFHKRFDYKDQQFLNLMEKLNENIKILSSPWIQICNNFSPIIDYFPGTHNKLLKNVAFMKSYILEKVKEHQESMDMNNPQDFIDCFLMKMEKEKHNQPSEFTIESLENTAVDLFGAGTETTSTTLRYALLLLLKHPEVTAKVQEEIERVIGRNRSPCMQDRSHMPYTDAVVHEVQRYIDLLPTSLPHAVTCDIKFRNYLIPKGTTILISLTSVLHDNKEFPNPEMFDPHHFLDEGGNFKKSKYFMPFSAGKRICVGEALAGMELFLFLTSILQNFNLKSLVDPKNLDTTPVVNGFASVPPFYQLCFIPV

On to `CCCCOc1cc(C[C@@H]2CNC(=O)N2)ccc1OC`, for which the AC50 at Cytochrome P450 3A4 was 15.8 µM (inconclusive).

For the compound `O=C(Nc1ccccc1Sc1ccccc1)c1ccccc1F`, the concentration giving a half-maximal response (EC50) in the experiment on Streptococcus was > 150 µM (not active); on Streptokinase A, > 50 µM (not active).

On to `O=C(O)CSc1nnc(Cn2c(=O)sc3ccccc32)n1-c1cccc(Cl)c1`, for which the EC50 (in experiment [1]; with Streptococcus; on Streptokinase A) was > 150 µM (not active) each time.

Consider `Clc1ccccc1-c1cncnc1NCCc1cnc[nH]1`, for which the AC50 on Cytochrome P450 2C9 is 1 µM (inconclusive).

Consider `Cc1ccc(NC(=O)OCc2cn(-c3ccc(Cl)cc3)nn2)cc1`, for which the AC50 at Cytochrome P450 3A4 is 7.94 µM (inconclusive).

Consider `O=C(CSc1nnc(-c2cccnc2)o1)Nc1ccccn1`, for which the EC50 in the experiment with H4 is > 120 µM (not active); in experiment [2], 14.5 µM (active).

On to `COc1ccccc1C(=O)Nc1nnc(S(=O)(=O)N2CCN(c3ccc(F)cc3)CC2)s1`, for which the figures for the 50% effective concentration (EC50) (in experiment [1]; in the experiment with Streptococcus; on Streptokinase A) were 20.1 µM (active), 119 µM (inconclusive) and > 50 µM (not active), respectively.

Regarding `COc1ccc(CNC(=O)CN(Cc2ccccc2)S(=O)(=O)c2ccc(Cl)cc2)cc1`, the values for the concentration for a half-maximal effect (EC50) in [3] and in [4] were 3.15 µM (active) and > 60 µM (not active), respectively.

`O=C(C1CCCCC1)N(CCN1CCCC1)c1nc2ccccc2s1`: the results for the concentration giving a half-maximal response (EC50) in experiment [3] and in experiment [4] were 0.78 µM (active) and > 60 µM (not active), respectively.

For `Fc1ccc(/C=C\c2[nH]ccc3c4ccccc4nc2-3)cc1`, the EC50 in the experiment on H4 is > 120 µM (not active); in [2], 17.7 µM (active).

Consider `CC(C)CN1CCC2(CC1)CCN(C(=O)c1ccncc1)CC2`, for which the AC50 on Cytochrome P450 3A4 was 15.8 µM (inconclusive).

On to `C[C@@]12CC[C@H]3[C@@H](CC[C@@H]4C[C@H]5S[C@H]5C[C@]43C)[C@H]1CC[C@H]2O`, for which, on Cytochrome P450 3A4, the AC50 is 6.31 µM (inconclusive).

As to `Cc1noc(C)c1CSCC(=O)Nc1nc2ccc(Oc3ccccc3)cc2s1`, the EC50 is 4.32 µM (active) in experiment [1], > 150 µM (not active) in the experiment on Streptococcus and 16.9 µM (active) on Streptokinase A.

Consider `O=C(Nc1cc(C(F)(F)F)ccc1-n1cncn1)c1ccc(Br)cc1`, for which, at Cytochrome P450 2C9, the AC50 is 3.16 µM (inconclusive).

As to `CN(C)c1cc(-c2cccc(NS(C)(=O)=O)c2)ncn1`, the AC50 at Cytochrome P450 3A4 is 25.1 µM (inconclusive).

Turning to `COc1ccc2c3c1O[C@@H]1C(=O)CC[C@@]4(O)[C@@H](C2)N(CC2CC2)CC[C@]314`, on Cytochrome P450 3A4, the AC50 is 25.1 µM (inconclusive).

As to `O=c1c(-c2cccs2)nc2cnc(Oc3ccccc3)nc2n1Cc1cccs1`, the AC50 on Cytochrome P450 3A4 was 15.8 µM (inconclusive); at Cytochrome P450 2C9 it was 1.58 µM (inconclusive).

For `O=C(CC(=O)c1ccccc1)Nc1cccnc1Cl`, the half-maximal effective concentration (EC50) with H4 is 8.38 µM (active); in experiment [2] it was 61.9 µM (active).

Consider `O=C(CSc1nc2ccc([N+](=O)[O-])cc2s1)c1ccc2ccccc2c1`, for which, at Cytochrome P450 3A4, the AC50 was 3.98 µM (inconclusive).

On to `CC(C)CN1CCCC2(CCN(C(=O)c3cccn3C)CC2)C1`, for which the AC50 at Cytochrome P450 3A4 is 12.6 µM (inconclusive).

On to `CN1CCC(N(C)C(=O)c2sc3cc(F)ccc3c2Cl)CC1`, for which the values for the EC50 in experiment [3] and in experiment [4] were 0.197 µM (active) and > 60 µM (not active), respectively.

As to `COc1cccc(CNC(=O)CCC2CCCN(Cc3cc4ccccc4o3)C2)c1` (stereo unspecified), the results for the EC50 in [3] and in [4] were 0.103 µM (active) and > 60 µM (not active), respectively.

For the compound `Clc1ccc(-c2cc3ccccc3nc2N2CCCC2)cc1`, the EC50 in experiment [1] was 8.89 µM (active); with Streptococcus, > 150 µM (not active); on Streptokinase A, 17.6 µM (active).

In the case of `Cc1nc2ccccc2c(=O)n1NC(=O)/C=C/c1ccccc1Cl`, the EC50 with H4 is 84.4 µM (active); in experiment [2], 12.2 µM (active).

As for `Cc1ccc(N2C(=O)C3N=NN(CC(=O)N4N=C(c5cccc6ccccc56)CC4c4ccccc4)C3C2=O)cc1` (stereo unspecified), the EC50 is 31.4 µM (active) in [1], > 150 µM (not active) in the experiment with Streptococcus and 35.7 µM (active) at Streptokinase A.

For the compound `COc1ccc(C2CC(c3cccs3)=NN2C(=O)CSc2nc(O)c3cnn(-c4ccccc4)c3n2)cc1` (stereo unspecified), the EC50 in experiment [1] was 3 µM (active); with Streptococcus, 5.77 µM (active).

Turning to `Cc1nc2cnc(N3CCN(C)CC3)nc2n(Cc2ccc(F)cc2)c1=O`, at Cytochrome P450 3A4, the concentration at half-maximal activity (AC50) is 20 µM (inconclusive).

For `Cc1nn(C)c(Cl)c1CN1CCCC(C(=O)Nc2ccc(-c3cscn3)cc2)C1` (stereo unspecified), the EC50 (in experiment [1]; with Streptococcus; on Streptokinase A) was > 150 µM (not active) each time.

With `CCCn1c(=O)c(C(=O)Nc2ncccc2C)c(O)c2ccccc21`, the values for the EC50 (in experiment [1]; in the experiment on Streptococcus; on Streptokinase A) were 9.49 µM (active), 16.8 µM (active) and > 150 µM (not active), respectively.

For `C[C@H]1CC[C@H]2C(=O)N3[C@H](c4ccc(Br)cc4)[C@@H](C)CC[C@H]3C(=O)N2[C@@H]1c1ccc(Br)cc1`, the AC50 on Cytochrome P450 3A4 was 3.98 µM (inconclusive).

Turning to `CC(NC(=O)CN1CCCC1)C12CC3CC(CC(C3)C1)C2` (stereo unspecified), the AC50 at Cytochrome P450 3A4 was 14.1 µM (inconclusive).

Take `COc1ccc(C(=O)Nc2sc(C)c(-c3ccccc3)c2C#N)cc1OC`: the EC50 in [1] was 9.09 µM (active); with Streptococcus, 45.5 µM (active); on Streptokinase A, > 150 µM (not active).

As to `CCNC(C)(C)[C@@H](SS)c1ccc(Br)cc1`, the AC50 on Cytochrome P450 3A4 is 5.01 µM (inconclusive); on Cytochrome P450 2C9, 6.31 µM (inconclusive).

Consider `CC(Oc1ccc(Cl)cc1Cl)C(=O)Nc1ccc(S(=O)(=O)Nc2cnc3ccccc3n2)cc1` (stereo unspecified), for which the EC50 in [1] was 2.45 µM (active); with Streptococcus, 7.38 µM (active); at Streptokinase A, 3.69 µM (active).

Regarding `COc1ccccc1CNc1ncncc1-c1ccoc1`, the AC50 at Cytochrome P450 3A4 was 0.794 µM (inconclusive); on Cytochrome P450 2C9 it was 1.58 µM (inconclusive).

Regarding `COCCOC(=O)C1=C(C)NC(=O)N(C(C)=O)C1c1ccc(Cl)cc1` (stereo unspecified), at Cytochrome P450 3A4, the AC50 is 17.8 µM (inconclusive).

`COc1ccccc1CNc1ncncc1-c1ccccc1OC`: the AC50 at Cytochrome P450 2C9 is 1.58 µM (inconclusive).

With `O=C(COC(=O)c1ccccc1)Nc1ccccc1Sc1ccccc1`, the EC50 in experiment [1] was > 150 µM (not active); in the experiment on Streptococcus, > 150 µM (not active); at Streptokinase A it was 28.8 µM (active).

`O=C(Cn1cnc2cc([N+](=O)[O-])ccc2c1=O)Nc1ccc(Br)cc1`: the EC50 in experiment [3] was 0.85 µM (active); in experiment [4] it was > 30 µM (not active).

Regarding `COc1cccc(NCc2cc(=O)oc3cc(C)c(O)cc23)c1`, the figures for the EC50 (in [1]; in the experiment with Streptococcus) were 1.83 µM (active) and 2.79 µM (active), respectively.

As to `COc1ccccc1CNC(=O)c1ccc(-c2ccccc2Cl)o1`, the EC50 in [1] was 15.3 µM (active); with Streptococcus, 17.5 µM (active); at Streptokinase A, > 150 µM (not active).

Take `O=C(c1ccco1)N(CCC(c1ccccc1)c1ccco1)Cc1ccco1` (stereo unspecified): the AC50 at Cytochrome P450 3A4 was 11.2 µM (inconclusive).

As for `CCCC(N=C(S)NCC1CCCO1)C12CC3CC(CC(C3)C1)C2` (stereo unspecified), the EC50 in [1] is 12.3 µM (active); in the experiment with Streptococcus it was > 150 µM (not active).

Take `CCCC(NC(=S)NCC1CCCO1)C12CC3CC(CC(C3)C1)C2` (stereo unspecified): at Streptokinase A, the EC50 was 18 µM (active).

Consider `CC(C)c1c(C(=O)N/N=C/c2cccc(OCc3ccccc3)c2)nnn1-c1nonc1N`, for which the EC50 is 8.03 µM (active) in [1], 26.4 µM (active) with Streptococcus and 9.73 µM (active) at Streptokinase A.

Consider `Cc1cc2c(cc1C)-c1c(ss/c1=N\c1ccc(S(N)(=O)=O)cc1)C(C)(C)N2`, for which the EC50 was 4.16 µM (active) in [1], > 150 µM (not active) with Streptococcus and 26.1 µM (active) at Streptokinase A.

With `C/C(=N\NC(=O)c1[nH]c2c([N+](=O)[O-])cc(C)cc2c1-c1ccccc1)c1cccnc1`, the AC50 on Cytochrome P450 2C9 is 8.91 µM (inconclusive).

On to `C=C(C)CSc1nncn1/N=C/c1ccc(OC)cc1`, for which the EC50 is 11.9 µM (active) in the experiment on H4 and > 120 µM (not active) in [2].

In the case of `CN(C)c1ccc(-c2noc(C3CCN(S(=O)(=O)c4cccc(C(=O)O)c4)CC3)n2)cc1`, on Cytochrome P450 2C9, the AC50 is 15.8 µM (inconclusive).

Turning to `COc1cccc(-c2cncnc2NCc2ccc(OC)cc2OC)c1`, at Cytochrome P450 2C9, the AC50 is 1 µM (inconclusive).

For `C1=C(CN2CCOCC2)COc2c1cccc2OC[C@@H]1CNCCO1`, the AC50 at Cytochrome P450 3A4 was 39.8 µM (inconclusive).

In the case of `C/C(Cn1cnc([N+](=O)[O-])n1)=N\NC(=O)c1ccc(O)cc1O`, the results for the EC50 in experiment [3] and in [4] were 1.52 µM (active) and > 60 µM (not active), respectively.
